According to the NIST ThermoML archive (doi:10.1016/j.fluid.2018.04.007):
± gives the expanded uncertainty stated by the source.

Legend:
[1] = relative permittivity at various frequencies (dimensionless); xn = mol fraction of the nth substance listed; details: 101 kPa, Liquid, Frequency=1 MHz, Parallel plate capacitor, x1 = 1
[2] = refractive index (Na D-line) (dimensionless); xn = mol fraction of the nth substance listed; details: 101 kPa, Liquid, Standard Abbe refractometry, x1 = 1
[3] = 101 kPa, Liquid, Vibrating tube method
[4] = refractive index (Na D-line) (dimensionless); details: 101 kPa, Liquid, Standard Abbe refractometry
[5] = relative permittivity at various frequencies (dimensionless); details: 101 kPa, Liquid, Frequency=1 MHz, Parallel plate capacitor

CCCCCCCO [heptan-1-ol] + CCCCCCN
relative permittivity ([1]; 293.15 K): 12.019 ± 0.6 | relative permittivity ([1]; 298.15 K): 11.504 ± 0.59 | relative permittivity ([1]; 303.15 K): 11.014 ± 0.57 | refractive index ([2]; 293.15 K): 1.42425 ± 0.00033 | refractive index ([2]; 298.15 K): 1.42235 ± 0.00033 | refractive index ([2]; 303.15 K): 1.42047 ± 0.00033

CCCCCO [pentan-1-ol]
mass density ([3]; 293.15 K): 814.66 ± 2 kg/m3 | mass density ([3]; 298.15 K): 811.03 ± 1.9 kg/m3 | mass density ([3]; 303.15 K): 807.35 ± 1.9 kg/m3 | refractive index ([4]; 293.15 K): 1.40985 ± 0.00033 | refractive index ([4]; 298.15 K): 1.40793 ± 0.00033 | refractive index ([4]; 303.15 K): 1.4059 ± 0.00033 | relative permittivity ([5]; 293.15 K): 15.701 ± 0.68 | relative permittivity ([5]; 298.15 K): 15.102 ± 0.67 | relative permittivity ([5]; 303.15 K): 14.536 ± 0.65

CCCCO [butan-1-ol]
mass density ([3]; 293.15 K): 809.85 ± 1.9 kg/m3 | mass density ([3]; 298.15 K): 806.06 ± 1.9 kg/m3 | mass density ([3]; 303.15 K): 802.22 ± 1.9 kg/m3 | refractive index ([4]; 293.15 K): 1.39931 ± 0.00033 | refractive index ([4]; 298.15 K): 1.39733 ± 0.00033 | refractive index ([4]; 303.15 K): 1.39529 ± 0.00033 | relative permittivity ([5]; 293.15 K): 18.192 ± 0.73 | relative permittivity ([5]; 298.15 K): 17.545 ± 0.71 | relative permittivity ([5]; 303.15 K): 16.933 ± 0.7

CCCCCCN [1-hexanamine]
mass density ([3]; 293.15 K): 764.43 ± 1.8 kg/m3 | mass density ([3]; 298.15 K): 760.19 ± 1.8 kg/m3 | mass density ([3]; 303.15 K): 755.9 ± 1.8 kg/m3 | refractive index ([4]; 293.15 K): 1.41808 ± 0.00033 | refractive index ([4]; 298.15 K): 1.41563 ± 0.00033 | refractive index ([4]; 303.15 K): 1.41321 ± 0.00033 | relative permittivity ([5]; 293.15 K): 3.964 ± 0.37 | relative permittivity ([5]; 298.15 K): 3.904 ± 0.37 | relative permittivity ([5]; 303.15 K): 3.846 ± 0.36

CCCCO [butan-1-ol] + CCCCCCN
relative permittivity ([1]; 293.15 K): 18.192 ± 0.73 | relative permittivity ([1]; 298.15 K): 17.545 ± 0.71 | relative permittivity ([1]; 303.15 K): 16.933 ± 0.7 | refractive index ([2]; 293.15 K): 1.39931 ± 0.00033 | refractive index ([2]; 298.15 K): 1.39733 ± 0.00033 | refractive index ([2]; 303.15 K): 1.39529 ± 0.00033

CCCO [propan-1-ol]
mass density ([3]; 293.15 K): 803.66 ± 1.9 kg/m3 | mass density ([3]; 298.15 K): 799.68 ± 1.9 kg/m3 | mass density ([3]; 303.15 K): 795.66 ± 1.9 kg/m3 | refractive index ([4]; 293.15 K): 1.38514 ± 0.00033 | refractive index ([4]; 298.15 K): 1.38306 ± 0.00033 | refractive index ([4]; 303.15 K): 1.38102 ± 0.00033 | relative permittivity ([5]; 293.15 K): 21.15 ± 0.78 | relative permittivity ([5]; 298.15 K): 20.449 ± 0.77 | relative permittivity ([5]; 303.15 K): 19.784 ± 0.76

CCCO [propan-1-ol] + CCCCCCN
relative permittivity ([1]; 293.15 K): 21.15 ± 0.78 | relative permittivity ([1]; 298.15 K): 20.449 ± 0.77 | relative permittivity ([1]; 303.15 K): 19.784 ± 0.76 | refractive index ([2]; 293.15 K): 1.38514 ± 0.00033 | refractive index ([2]; 298.15 K): 1.38306 ± 0.00033 | refractive index ([2]; 303.15 K): 1.38102 ± 0.00033

CO [methanol] + CCCCCCN
relative permittivity ([1]; 293.15 K): 33.569 ± 0.97 | relative permittivity ([1]; 298.15 K): 32.619 ± 0.96 | relative permittivity ([1]; 303.15 K): 33.569 ± 0.97 | refractive index ([2]; 293.15 K): 1.32862 ± 0.00033 | refractive index ([2]; 298.15 K): 1.32654 ± 0.00033 | refractive index ([2]; 303.15 K): 1.32439 ± 0.00033

CO [methanol]
mass density ([3]; 293.15 K): 791.63 ± 1.9 kg/m3 | mass density ([3]; 298.15 K): 786.95 ± 1.9 kg/m3 | mass density ([3]; 303.15 K): 782.22 ± 1.9 kg/m3 | refractive index ([4]; 293.15 K): 1.32862 ± 0.00033 | refractive index ([4]; 298.15 K): 1.32654 ± 0.00033 | refractive index ([4]; 303.15 K): 1.32439 ± 0.00033 | relative permittivity ([5]; 293.15 K): 33.569 ± 0.97 | relative permittivity ([5]; 298.15 K): 32.619 ± 0.96 | relative permittivity ([5]; 303.15 K): 31.652 ± 0.95

CCCCCO [pentan-1-ol] + CCCCCCN
relative permittivity ([1]; 293.15 K): 15.701 ± 0.68 | relative permittivity ([1]; 298.15 K): 15.102 ± 0.67 | relative permittivity ([1]; 303.15 K): 14.536 ± 0.65 | refractive index ([2]; 293.15 K): 1.40985 ± 0.00033 | refractive index ([2]; 298.15 K): 1.40793 ± 0.00033 | refractive index ([2]; 303.15 K): 1.4059 ± 0.00033

CCCCCCCO [heptan-1-ol]
mass density ([3]; 293.15 K): 822.37 ± 2 kg/m3 | mass density ([3]; 298.15 K): 818.9 ± 2 kg/m3 | mass density ([3]; 303.15 K): 815.37 ± 2 kg/m3 | refractive index ([4]; 293.15 K): 1.42425 ± 0.00033 | refractive index ([4]; 298.15 K): 1.42235 ± 0.00033 | refractive index ([4]; 303.15 K): 1.42047 ± 0.00033 | relative permittivity ([5]; 293.15 K): 12.019 ± 0.6 | relative permittivity ([5]; 298.15 K): 11.504 ± 0.59 | relative permittivity ([5]; 303.15 K): 11.014 ± 0.57
